Source: publication PMC5958743, “A Novel Catecholopyrimidine Based Small Molecule PDE4B Inhibitor Suppresses Inflammatory Cytokines in Atopic Mice” (Frontiers in Pharmacology, 2018)

Experiments:
DNCB-induced NC/Nga mice [1] = assay: DNCB-induced atopic dermatitis model, serum IgE and cytokines by ELISA; format: in vivo, mouse; conditions: for serum IL-4 level / serum IL-5 level: topical 1% compound 1 (p < 0.05) or 0.3% compound 2 (p < 0.01); for serum IL-4 level / serum IL-5 level / serum IL-17 level: vs DNCB alone; for serum IL-17 level: topical 1% compound 1 (p < 0.5) or 0.3% compound 2 (p < 0.01); for serum IFN-γ level (reduced by DNCB): topical 1% compound 1 or 0.3% compound 2; for serum IgE level: topical 1% compound 1 or 0.3% compound 2, p < 0.01 vs DNCB
Procedure: (§1) Male NC/Nga mice, 7-weeks-old, were purchased from Central Lab Animal Inc., South Korea. All mice were housed in specific pathogen-free conditions at the animal facility center of the College of Pharmacy at Seoul National University (Seoul, Korea), and were maintained at 24 – 26°C with a 12 h light and dark cycle. Animal experiments were conducted in accordance with protocols approved by the Institutional Animal Care and Use Committee of Seoul National University.
(§2) NC/Nga mice were classified into six groups (n = 6): (1) vehicle alone, acetone-olive oil (Sigma-Aldrich, St. Louis, MO, United States) in a ratio of 3:1 was used as a vehicle; (2) 1% of compound-1 with vehicle alone; (3) 0.3% of compound-2 with vehicle alone; (4) DNCB+vehicle; (5) DNCB + 1% of compound-1 mixed with vehicle; and (6) DNCB + 0.3% of compound-2 mixed with vehicle. DNCB (Sigma-Aldrich, St. Louis, MO, United States) was used to induce AD on the dorsal skin of the mice. Compound 1 and 2 were dissolved in 150 μl of vehicle and topically applied on the atopic tissue. Hair on the backs of the mice were removed using an electric clipper. Two days later, 150 μl of 1% DNCB was dissolved in the vehicle and applied on the dorsal skin twice with an interval period of 4 days. Afterward, 150 μl of 0.2% DNCB dissolved in the vehicle was applied to challenge the dorsal skin twice-a-week for 5 weeks. AD-induced mice were co-treated with either compound-1 or compound-2 once daily from day six onward until the end of the experiments.
On the final day of the experimental scheme, blood samples were collected from the experimental animals. Serum was isolated and stored at -80°C along with protease inhibitor cocktail for later use (Thermo Fisher Scientific, United States). Serum IL-4, IL-5, IL-17, IFN-γ, and IgE levels were measured according to the manufacturer’s instructions (Biolegend, San Diego, CA, United States; IL-4-431101; IL-17-432501; IL-5-431204; IFN-γ- 430801; IgE-432401; TNF-α- 430901). Serum samples were diluted five-fold for the cytokine assay. 10,000-fold diluted serum samples were utilized for the IgE assay. Absorbance was measured immediately at 492 nm using a multiplate reader (Molecular Devices Spectramax M5, Sunnyvale, CA, United States).

PDE4A4 = biological target: T1, PDE4A4 (Homo sapiens, UniProt P27815); assay: PDE enzyme inhibitor assay (LANCE Ultra cAMP), PDE4A; format: biochemical; conditions: 0.1 ng/well enzyme, 3 nM cAMP, 37°C 1 h
T1 construct: purchased BPS Biosciences
Procedure: (§3) The enzyme inhibition assay was performed against human PDE enzymes (PDE1A, PDE3A, PDE4A, PDE4B, PDE4C, PDE4D, and PDE7A; BPS Biosciences, San Diego, CA, United States) according to the manufacturer’s instructions (LANCE Ultra cAMP assay kit; Perkin Elmer, United States). In each well, 5 μl of 3 nM cAMP, 2.5 μl of PDE enzyme (0.1 ng/well), and 2.5 μl of inhibitor solution were added, and incubated at 37°C for 1 h. After incubation, 5 μL each of Eu-cAMP and ULight-anti-cAMP detection reagent supplemented with 1 mM of IBMX were added. The reaction mixture was incubated at 37°C for 1 h. After incubation, emission signals were collected at 665 nm using EnVision Multilable Reader (Perkin Elmer, United States).

DNCB-induced NC/Nga mice [2] = assay: DNCB-induced atopic dermatitis model, histopathology and immunohistochemistry of dorsal skin; format: in vivo, mouse; conditions: for mast cell infiltration in the epidermis region (toluidine blue), number of mast cells: topical 1% compound 1 or 0.3% compound 2, DNCB alone 97 ± 10.58, control 13 ± 2; for CD4+ cells in the skin (immunohistochemistry) / epidermal thickening (H&E) / infiltration of inflammatory cells into epidermis and dermis (H&E): topical 1% compound 1 or 0.3% compound 2, vs DNCB alone
Procedure: as §1, §2
Skin samples collected from the experimental mice were fixed by using 10% neutral buffered formalin, and embedded in paraffin. 4-μm thin tissue sections were prepared and stained with hematoxylin and eosin (H&E; Sigma-Aldrich, United States). To investigate the mast cell infiltration, sections were stained with toluidine blue (Sigma-Aldrich, United States). For immunohistochemical analysis, tissue sections were microwaved in sodium citrate buffer for 10 min to retrieve the antigen/epitope. After incubating with 0.1% triton X-100 containing phosphate buffered saline (PBS), sections were blocked with 10% FBS. Then, sections were incubated overnight with primary antibodies specific for IL-4, 5, 17, IFN-γ, and CD4, respectively (Santa Cruz Biotechnology, Santa Cruz, CA, United States). After treatment with 0.3% H2O2 in 0.1 M PBS for 15 min, sections were incubated with HRP-conjugated secondary antibodies specific for IL-4, 5, 17, IFN-γ, and CD4 for 1 h at room temperature. Diaminobenzidine was used to detect peroxidase activity, which was photographed using an Olympus AX70 light microscope (Tokyo, Japan).

Raw 264.7 cells [3] = assay: LPS-induced TNF-α in macrophage cell line (ELISA); format: cell-based; conditions: 30 nM compound 1 or 15 nM compound 2, 1 μM LPS 30 min
Procedure: (§4) The macrophage cell line, Raw 264.7 was maintained for 24 h in serum free DMEM medium. Then, cells were incubated with 30 nM of compound 1 and 15 nM of compound 2 for 1 h. After incubation, 1 μM of LPS (Sigma-Aldrich, United States) was added and incubated for 30 min at 37°C in a humidified 5% CO2 atmosphere. Finally, cells were lysed and supernatants were harvested. Intracellular cAMP levels were measured using the cAMP ELISA kit according to the manufacturer’s instruction (ADI-900-066; Enzo Life Sciences, United States). Similarly, TNFα level was assayed by ELISA analysis according to the manufacturer’s protocol (LEGEND MAX^TM Human TNF-α ELISA Kit, San Diego, CA, United States). Concentration is expressed in pg/mL.

Raw 264.7 cells [4] = assay: Intracellular cAMP in LPS-stimulated macrophage cell line (ELISA); format: cell-based; conditions: 30 nM compound 1 or 15 nM compound 2 for 1 h, then 1 μM LPS 30 min
Procedure: as §4

DNCB-induced NC/Nga mice [5] = assay: DNCB-induced atopic dermatitis model, evaluation of skin lesion and organs; format: in vivo, mouse; conditions: for dorsal skin thickness / spleen weight / subiliac lymph node size / subiliac lymph node weight / week after which significant reduction in dermatitis score was observed / scratching frequency (DNCB-induced itching sensation) / dermatitis score / AD-like skin features (erythema, hemorrhage, dry skin): DNCB-induced mice; for dorsal skin thickness: end of experiment, DNCB alone 1.19 mm, control 0.45 mm; for dorsal skin thickness / spleen weight / subiliac lymph node size / subiliac lymph node weight: topical 1% compound 1 or 0.3% compound 2; for spleen weight / subiliac lymph node size / subiliac lymph node weight / AD-like skin features (erythema, hemorrhage, dry skin): vs DNCB alone; for week after which significant reduction in dermatitis score was observed / scratching frequency (DNCB-induced itching sensation) / dermatitis score / AD-like skin features (erythema, hemorrhage, dry skin): topical once daily, 1% compound 1 or 0.3% compound 2; for scratching frequency (DNCB-induced itching sensation): measured once-a-week for 5 weeks; for dermatitis score: p < 0.01 vs DNCB; for skin feature of compound alone treated mice: no DNCB, topical 1% compound 1 or 0.3% compound 2 with vehicle alone
Procedure: as §1, §2
Dermatitis score was measured according to a previously established method, once-a-week for 5 weeks ([Matsuda et al., 1997]). Skin features of dermatitis, such as erythema/hemorrhage, edema, excoriation/erosion, and scaling/dryness were considered in the evaluation. Each symptom was scored as follows: 0 (none); 1 (mild); 2 (moderate); and 3 (severe). The sum of all the scores was defined as the dermatitis score of individual mice, which ranged between 0 and 12. In addition, the scratching behavior of the experimental animals was measured once-a-week for 5 weeks. Specifically, we measured the frequency with which the mice rubbed their dorsal skin, hind paws, nose, and ears for 10 min.

PDE4B1 = biological target: T2, PDE4B1 (Homo sapiens, UniProt Q07343); assay: PDE enzyme inhibitor assay (LANCE Ultra cAMP), PDE4B; format: biochemical; conditions: for IC50: 0.1 ng/well enzyme, 3 nM cAMP, 37°C 1 h; for specificity against PDE4B compared to other PDE enzymes: versus PDE1A, PDE3B, PDE4A, PDE4C, PDE4D, PDE7
T2 construct: purchased BPS Biosciences
T2 sequence (Q07343 whole entry): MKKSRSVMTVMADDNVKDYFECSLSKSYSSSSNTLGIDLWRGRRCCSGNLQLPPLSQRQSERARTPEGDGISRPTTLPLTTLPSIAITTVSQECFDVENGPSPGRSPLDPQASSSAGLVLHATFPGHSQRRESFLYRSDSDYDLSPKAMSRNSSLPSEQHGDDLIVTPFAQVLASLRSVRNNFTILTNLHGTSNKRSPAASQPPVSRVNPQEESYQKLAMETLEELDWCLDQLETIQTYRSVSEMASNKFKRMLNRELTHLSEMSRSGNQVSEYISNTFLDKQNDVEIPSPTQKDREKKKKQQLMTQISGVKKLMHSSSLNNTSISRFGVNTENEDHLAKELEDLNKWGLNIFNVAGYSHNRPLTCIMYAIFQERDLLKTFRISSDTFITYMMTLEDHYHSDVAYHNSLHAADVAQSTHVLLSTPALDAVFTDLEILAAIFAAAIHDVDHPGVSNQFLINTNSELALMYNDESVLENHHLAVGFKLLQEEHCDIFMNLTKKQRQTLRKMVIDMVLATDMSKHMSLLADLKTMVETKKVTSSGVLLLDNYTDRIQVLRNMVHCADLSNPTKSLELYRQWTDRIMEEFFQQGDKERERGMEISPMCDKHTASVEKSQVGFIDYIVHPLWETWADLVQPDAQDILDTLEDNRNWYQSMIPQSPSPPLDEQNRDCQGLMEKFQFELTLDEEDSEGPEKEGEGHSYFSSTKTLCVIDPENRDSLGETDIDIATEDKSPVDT

PDE4C1 = biological target: T3, PDE4C1 (Homo sapiens, UniProt Q08493); assay: PDE enzyme inhibitor assay (LANCE Ultra cAMP), PDE4C; format: biochemical; conditions: 0.1 ng/well enzyme, 3 nM cAMP, 37°C 1 h
T3 construct: purchased BPS Biosciences
T3 sequence (Q08493 whole entry): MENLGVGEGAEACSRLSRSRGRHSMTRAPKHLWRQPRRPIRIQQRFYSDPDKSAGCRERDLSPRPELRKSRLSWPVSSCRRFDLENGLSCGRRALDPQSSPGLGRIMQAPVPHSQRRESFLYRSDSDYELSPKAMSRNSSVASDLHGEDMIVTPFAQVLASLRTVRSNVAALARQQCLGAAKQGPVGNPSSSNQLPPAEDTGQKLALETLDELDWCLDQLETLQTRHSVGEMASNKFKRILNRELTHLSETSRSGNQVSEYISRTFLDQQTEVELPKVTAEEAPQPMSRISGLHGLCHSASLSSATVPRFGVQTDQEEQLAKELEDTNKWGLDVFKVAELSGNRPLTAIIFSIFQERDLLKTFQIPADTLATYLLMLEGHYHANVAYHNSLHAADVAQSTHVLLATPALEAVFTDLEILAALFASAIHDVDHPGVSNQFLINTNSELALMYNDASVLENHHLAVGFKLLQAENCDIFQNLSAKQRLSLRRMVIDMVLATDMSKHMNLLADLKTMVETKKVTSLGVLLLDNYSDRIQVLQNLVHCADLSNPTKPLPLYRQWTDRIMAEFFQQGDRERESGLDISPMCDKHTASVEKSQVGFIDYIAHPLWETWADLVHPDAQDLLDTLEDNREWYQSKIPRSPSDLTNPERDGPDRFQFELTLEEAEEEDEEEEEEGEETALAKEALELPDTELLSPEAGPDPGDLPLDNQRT
Procedure: as §3

PDE3B = PDE3B (Homo sapiens, UniProt Q13370); assay: PDE enzyme inhibitor assay (LANCE Ultra cAMP), PDE3B; format: biochemical; conditions: 0.1 ng/well enzyme, 3 nM cAMP, 37°C 1 h
Chain of PDE3B (Q13370 whole entry): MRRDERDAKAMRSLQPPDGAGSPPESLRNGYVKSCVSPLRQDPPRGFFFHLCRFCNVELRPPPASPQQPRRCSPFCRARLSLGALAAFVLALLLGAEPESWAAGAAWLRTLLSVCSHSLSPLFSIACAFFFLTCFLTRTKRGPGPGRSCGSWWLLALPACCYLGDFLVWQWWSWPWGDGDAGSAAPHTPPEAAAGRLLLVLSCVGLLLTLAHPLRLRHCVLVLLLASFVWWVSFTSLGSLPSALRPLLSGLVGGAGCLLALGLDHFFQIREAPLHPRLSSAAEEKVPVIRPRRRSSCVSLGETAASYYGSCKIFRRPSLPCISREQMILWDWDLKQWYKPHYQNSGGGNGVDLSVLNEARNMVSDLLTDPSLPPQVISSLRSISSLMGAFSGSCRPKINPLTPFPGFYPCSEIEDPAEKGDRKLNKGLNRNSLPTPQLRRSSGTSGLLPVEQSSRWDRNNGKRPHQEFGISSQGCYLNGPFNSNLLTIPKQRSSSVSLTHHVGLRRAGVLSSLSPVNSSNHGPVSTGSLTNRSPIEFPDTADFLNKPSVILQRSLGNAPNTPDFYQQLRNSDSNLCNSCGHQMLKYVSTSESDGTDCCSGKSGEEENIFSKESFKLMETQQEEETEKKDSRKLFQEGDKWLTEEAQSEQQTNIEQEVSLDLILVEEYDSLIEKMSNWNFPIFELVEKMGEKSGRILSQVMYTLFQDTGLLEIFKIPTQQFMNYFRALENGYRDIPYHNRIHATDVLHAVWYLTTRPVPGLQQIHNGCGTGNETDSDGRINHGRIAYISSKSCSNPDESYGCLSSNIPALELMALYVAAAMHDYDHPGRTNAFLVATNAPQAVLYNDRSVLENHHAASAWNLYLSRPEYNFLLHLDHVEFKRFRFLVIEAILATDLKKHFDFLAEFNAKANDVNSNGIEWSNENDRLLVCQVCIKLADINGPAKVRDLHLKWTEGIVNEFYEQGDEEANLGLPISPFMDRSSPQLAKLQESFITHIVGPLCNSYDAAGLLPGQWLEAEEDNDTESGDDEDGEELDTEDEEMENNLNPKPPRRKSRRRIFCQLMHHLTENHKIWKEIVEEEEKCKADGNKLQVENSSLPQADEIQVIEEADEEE

PDE4D7 = biological target: T4, PDE4D7 (Homo sapiens, UniProt Q08499); assay: PDE enzyme inhibitor assay (LANCE Ultra cAMP), PDE4D; format: biochemical; conditions: for IC50: 0.1 ng/well enzyme, 3 nM cAMP, 37°C 1 h
T4 construct: purchased BPS Biosciences
T4 sequence (Q08499 1-748 isoform Q08499-11): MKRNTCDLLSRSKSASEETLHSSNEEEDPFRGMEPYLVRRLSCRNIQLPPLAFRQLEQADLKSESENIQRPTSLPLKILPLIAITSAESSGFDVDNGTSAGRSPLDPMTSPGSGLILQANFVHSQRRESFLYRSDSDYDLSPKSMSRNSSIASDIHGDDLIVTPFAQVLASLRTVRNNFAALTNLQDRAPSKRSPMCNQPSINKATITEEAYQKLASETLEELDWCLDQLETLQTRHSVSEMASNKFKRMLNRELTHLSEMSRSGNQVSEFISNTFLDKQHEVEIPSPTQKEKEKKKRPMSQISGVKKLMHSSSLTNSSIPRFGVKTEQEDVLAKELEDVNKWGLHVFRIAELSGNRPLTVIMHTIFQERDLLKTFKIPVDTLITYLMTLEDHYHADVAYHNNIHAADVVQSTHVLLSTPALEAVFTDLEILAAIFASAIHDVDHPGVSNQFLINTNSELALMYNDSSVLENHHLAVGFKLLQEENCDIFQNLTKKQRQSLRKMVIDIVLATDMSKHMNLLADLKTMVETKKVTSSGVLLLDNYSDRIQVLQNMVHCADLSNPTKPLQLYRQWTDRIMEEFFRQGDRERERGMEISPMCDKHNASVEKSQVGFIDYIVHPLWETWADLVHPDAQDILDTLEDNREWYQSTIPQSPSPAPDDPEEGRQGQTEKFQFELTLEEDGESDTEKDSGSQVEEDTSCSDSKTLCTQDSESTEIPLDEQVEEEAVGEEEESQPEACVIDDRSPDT
Procedure: as §3

PDE7 = biological target: T5, PDE7 (Homo sapiens, UniProt Q13946); assay: PDE enzyme inhibitor assay (LANCE Ultra cAMP), PDE7; format: biochemical; conditions: 0.1 ng/well enzyme, 3 nM cAMP, 37°C 1 h
T5 construct: purchased BPS Biosciences
T5 sequence (Q13946 whole entry): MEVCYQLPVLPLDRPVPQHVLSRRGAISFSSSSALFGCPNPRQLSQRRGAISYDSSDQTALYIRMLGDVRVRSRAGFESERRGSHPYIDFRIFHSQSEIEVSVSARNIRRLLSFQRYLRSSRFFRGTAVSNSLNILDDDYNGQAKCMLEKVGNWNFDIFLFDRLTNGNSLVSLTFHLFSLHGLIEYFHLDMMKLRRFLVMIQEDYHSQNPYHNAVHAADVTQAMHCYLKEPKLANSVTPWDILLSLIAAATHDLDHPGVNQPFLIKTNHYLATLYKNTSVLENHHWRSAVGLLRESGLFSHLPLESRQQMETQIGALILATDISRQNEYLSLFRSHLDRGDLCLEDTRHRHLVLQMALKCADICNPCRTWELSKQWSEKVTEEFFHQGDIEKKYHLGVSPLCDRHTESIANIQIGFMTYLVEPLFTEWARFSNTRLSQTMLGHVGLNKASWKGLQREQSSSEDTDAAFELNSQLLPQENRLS
Procedure: as §3

PDE1A = biological target: T6, PDE1A (Homo sapiens, UniProt P54750); assay: PDE enzyme inhibitor assay (LANCE Ultra cAMP), PDE1A; format: biochemical; conditions: 0.1 ng/well enzyme, 3 nM cAMP, 37°C 1 h
T6 construct: purchased BPS Biosciences
T6 sequence (P54750 whole entry): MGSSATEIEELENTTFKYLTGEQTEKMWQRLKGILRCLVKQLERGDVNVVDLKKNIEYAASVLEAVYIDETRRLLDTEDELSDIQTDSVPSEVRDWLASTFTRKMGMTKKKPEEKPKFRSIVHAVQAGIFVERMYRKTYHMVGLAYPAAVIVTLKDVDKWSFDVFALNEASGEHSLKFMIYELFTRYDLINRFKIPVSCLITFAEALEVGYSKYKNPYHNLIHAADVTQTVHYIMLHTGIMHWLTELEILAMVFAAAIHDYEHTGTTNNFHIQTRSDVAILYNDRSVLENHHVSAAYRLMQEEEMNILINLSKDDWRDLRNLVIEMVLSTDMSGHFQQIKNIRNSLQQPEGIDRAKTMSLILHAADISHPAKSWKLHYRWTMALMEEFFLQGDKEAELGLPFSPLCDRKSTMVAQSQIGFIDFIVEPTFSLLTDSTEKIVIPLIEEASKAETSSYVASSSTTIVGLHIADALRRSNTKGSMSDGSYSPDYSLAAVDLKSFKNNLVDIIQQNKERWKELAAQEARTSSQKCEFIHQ
Procedure: as §3

Compound | serum IL-4 level (DNCB-induced NC/Nga mice [1]) | serum IL-5 level (DNCB-induced NC/Nga mice [1]) | serum IL-17 level (DNCB-induced NC/Nga mice [1]) | serum IFN-γ level (reduced by DNCB) (DNCB-induced NC/Nga mice [1]) | serum IgE level (DNCB-induced NC/Nga mice [1]) | IC50 (PDE4A4) [nM] | mast cell infiltration in the epidermis region (toluidine blue), number of mast cells (DNCB-induced NC/Nga mice [2]) [per 350 μm^2] | CD4+ cells in the skin (immunohistochemistry) (DNCB-induced NC/Nga mice [2]) | epidermal thickening (H&E) (DNCB-induced NC/Nga mice [2]) | infiltration of inflammatory cells into epidermis and dermis (H&E) (DNCB-induced NC/Nga mice [2]) | LPS-induced TNF-α synthesis (Raw 264.7 cells [3]) | intracellular levels of cAMP (Raw 264.7 cells [4]) | dorsal skin thickness (DNCB-induced NC/Nga mice [5]) [mm] | spleen weight (DNCB-induced NC/Nga mice [5]) | subiliac lymph node size (DNCB-induced NC/Nga mice [5]) | subiliac lymph node weight (DNCB-induced NC/Nga mice [5]) | week after which significant reduction in dermatitis score was observed (DNCB-induced NC/Nga mice [5]) | scratching frequency (DNCB-induced itching sensation) (DNCB-induced NC/Nga mice [5]) | dermatitis score (DNCB-induced NC/Nga mice [5]) | AD-like skin features (erythema, hemorrhage, dry skin) (DNCB-induced NC/Nga mice [5]) | also measured
COc1ccc(NC(=O)c2cnc(SC)nc2N2CCOCC2)cc1OC [compound 1, N-(3,4-dimethoxyphenyl)-2-(methylthio)-4-morpholinopyrimidine-5-carboxamide] | significantly reversed | significantly reversed | reduced level | significantly reversed | significantly reduced | 45 ± 3.54 | 56 ± 11 | reduced levels of CD4+ cells | reduced epidermal thickening | reduced levels of inflammatory cells | effectively inhibited | significantly improved | 0.78 | significantly reduced | drastically reduced | drastically reduced | third | significantly (p < 0.01) inhibited | significant reduction | reduced levels of erythema and hemorrhage and dry skin | skin feature of compound alone treated mice (DNCB-induced NC/Nga mice [5]): normal skin feature, no sign of allergy was observed; IC50 (PDE4B1): 31 ± 7.17 nM; specificity against PDE4B compared to other PDE enzymes (PDE4B1): not exclusive to PDE4B alone; IC50 (PDE4C1): 77 ± 8.8 nM; IC50 (PDE3B): 800 ± 45.8 nM; IC50 (PDE4D7): 220 ± 16.3 nM; IC50 (PDE7): 389 ± 26.3 nM; IC50 (PDE1A): 756 ± 59 nM
COc1ccc(-c2nc(C(F)(F)F)ncc2C(=O)Nc2ccncc2)cc1OC [compound 2, 4-(3,4-dimethoxyphenyl)-N-(pyridin-4-yl)-2-(trifluoromethyl)pyrimidine-5-carboxamide] | significantly reversed | significantly reversed | reduced level | significantly reversed | significantly reduced | 152 ± 1.33 | 29.41 ± 6 | reduced levels of CD4+ cells | reduced epidermal thickening | reduced levels of inflammatory cells | effectively inhibited | significantly improved | 0.64 | significantly reduced | drastically reduced | drastically reduced | second | significantly (p < 0.01) inhibited | significant reduction | reduced levels of erythema and hemorrhage and dry skin | skin feature of compound alone treated mice (DNCB-induced NC/Nga mice [5]): normal skin feature, no sign of allergy was observed; IC50 (PDE4B1): 15 ± 0.4 nM; specificity against PDE4B compared to other PDE enzymes (PDE4B1): high specificity against PDE4B; IC50 (PDE4C1): 57 ± 4.87 nM; IC50 (PDE3B): 169 ± 3.78 nM; IC50 (PDE4D7): 108 ± 3.78 nM; concentration required to inhibit PDE4D relative to PDE4B (PDE4D7; PDE4D versus PDE4B): nearly sevenfold higher concentration; IC50 (PDE7): 250 ± 14.6 nM; IC50 (PDE1A): 98 ± 8.45 nM
